From US20210220374A1, “METHODS OF TREATING TE[…]” (Clarus Therapeutics, Inc., priority 2013, published 2021)

Tests used:
[1] = Contingency table classification of C(t) acceptance range as surrogate for Cavg; parameters: species or system hypogonadal men; conditions: for Percent of Subjects: C(t) in range / Percent of Subjects: C(t) too high / Percent of Subjects: C(t) too low / Percent of Subjects: Cavg in range & C(t) in range / Percent of Subjects: Cavg in range & C(t) too high / Percent of Subjects: Cavg in range & C(t) too low / Percent of Subjects: Cavg too high & C(t) in range / Percent of Subjects: Cavg too high & C(t) too high / Percent of Subjects: Cavg too low & C(t) in range / Percent of Subjects: Cavg too low & C(t) too low: Cavg 300-1000 ng/dL; for Percent of subjects: Cavg in Range F & C(t) in Range F (total of too high and too low): Cavg 300-1000
Text: For the contingency table approach, the number and percentage of subjects that fell into each of the following seven categories were enumerated, for each of the candidate time points, and for each candidate target range for Cavg, and for each candidate acceptance range for C(t). • 1. Subjects with Cavg within range and with C(t) within range • 2. Subjects with Cavg below range and with C(t) below range • 3. Subjects with Cavg above range and with C(t) above range • 4. Subjects with Cavg within range but with C(t) below range • 5. Subjects with Cavg within range but with C(t) above range • 6. Subjects with Cavg below range, but with C(t) within range • 7. Subjects with Cavg above range, but with C(t) within range
If one defines a value as being “within range” as positive, and being “outside of range” as negative, then Group 1 is subjects that are “true positives”, Groups 2 and 3 are “true negatives”, groups 4 and 5 are “false negatives”, and groups 6 and 7 are “false positives”. Groups, 1, 2 and 3 represent successful predictions because C(t) is an appropriate surrogate for Cavg; Groups 4, 5, 6 and 7 are prediction failures because C(t) is an inaccurate surrogate for Cavg.
Correlations and contingency table calculations were performed using built-in functions in the Excel module of Microsoft Office 2003 (Redmond, Wash.). Graphs were produced using the built-in charting capabilities of Excel.

[2] = Example 4 food effects study of Formulation B; format: in vivo, hypogonadal men
Procedure: Subjects were randomized to receive the drug in the fasting state or 30 minutes after consumption of meals containing ˜800 calories with specific amounts of fat (wt %): very low fat (6-10%); low fat (20%); “normal” diet fat (30%); or high fat (50%). The “normal” diet was, a priori, established as the comparator (i.e., reference diet) for purposes of statistical comparisons. Serial blood samples were collected for a total of 24 hours after drug administration to determine serum testosterone and dihydrotestosterone (DHT) levels by liquid chromatography-mass spectroscopy (LC/MS/MS).

[3] = C(6) alternate, C(t) acceptance 250-1700
[4] = targeted Cavg 300-1000 ng/dL, 200 mg T BID as TU

Question: Which “Percent of Subjects: C(t) in range” value ([1]; C(5), C(t) acceptance 250-1400) does the source give for `CCCCCCCCCCC(=O)O[C@H]1CC[C@H]2[C@@H]3CCC4=CC(=O)CC[C@]4(C)[C@H]3CC[C@]12C` [TU, testosterone undecanoate] here?
Answer: 82.9%

Question: What about the “Percent of Subjects: C(t) too high” value ([1]; C(5), C(t) acceptance 250-1400) of the same compound?
Answer: 4.9%

Question: What about the “Percent of Subjects: C(t) too low” value ([1]; C(5), C(t) acceptance 250-1400) of the same compound?
Answer: 12.2%

Question: What about the “Percent of Subjects: Cavg in range & C(t) in range” value (from here on “Percent … in range & C(t) in range”) ([1]; C(5), C(t) acceptance 250-1400) of the same compound?
Answer: 75.6%

Question: What about the “Percent of Subjects: Cavg in range & C(t) too high” value (“Percent … in range & C(t) too high” for short) ([1]; C(5), C(t) acceptance 250-1400) of the same compound?
Answer: 2.4%

Question: And the “Percent of Subjects: Cavg in range & C(t) too low” value (“Percent … in range & C(t) too low” for short) ([1]; C(5), C(t) acceptance 250-1400)?
Answer: 2.4%

Question: What about the “Percent of Subjects: Cavg too high & C(t) in range” value ([1]; C(5), C(t) acceptance 250-1400) of the same compound?
Answer: 4.9%

Question: And the “Percent of Subjects: Cavg too high & C(t) too high” value ([1]; C(5), C(t) acceptance 250-1400)?
Answer: 2.4%

Question: And the “Percent of Subjects: Cavg too low & C(t) in range” value ([1]; C(5), C(t) acceptance 250-1400)?
Answer: 2.4%

Question: And the “Percent of Subjects: Cavg too low & C(t) too low” value ([1]; C(5), C(t) acceptance 250-1400)?
Answer: 9.8%

Question: What about the “Percent of subjects: Cavg in Range F & C(t) in Range F (total of too high and too low)” value (“Percent … (total of too high and too low)” below) ([1]; C(5), C(t) acceptance 250-1400) of the same compound?
Answer: 12.2%

Question: And the “Percent of Subjects: C(t) in range” value [1, 3]?
Answer: 90.2%

Question: And the “Percent of Subjects: C(t) too high” value [1, 3]?
Answer: 0.0%

Question: What about the “Percent of Subjects: C(t) too low” value [1, 3] of the same compound?
Answer: 9.8%

Question: And the “Percent … in range & C(t) in range” value [1, 3]?
Answer: 80.5%

Question: What about the “Percent … in range & C(t) too high” value [1, 3] of the same compound?
Answer: 0.0%

Question: What about the “Percent … in range & C(t) too low” value [1, 3] of the same compound?
Answer: 0.0%

Question: And the “Percent of Subjects: Cavg too high & C(t) in range” value [1, 3]?
Answer: 7.3%

Question: What about the “Percent of Subjects: Cavg too high & C(t) too high” value [1, 3] of the same compound?
Answer: 0.0%

Question: And the “Percent of Subjects: Cavg too low & C(t) in range” value [1, 3]?
Answer: 2.4%

Question: What about the “Percent of Subjects: Cavg too low & C(t) too low” value [1, 3] of the same compound?
Answer: 9.8%

Question: And the “Percent … (total of too high and too low)” value [1, 3]?
Answer: 9.8%

Question: What about the “Percent of Subjects: C(t) in range” value ([1]; C(6), C(t) acceptance 250-1100) of the same compound?
Answer: 75.6%

Question: And the “Percent of Subjects: C(t) too high” value ([1]; C(6), C(t) acceptance 250-1100)?
Answer: 14.6%

Question: And the “Percent of Subjects: C(t) too low” value ([1]; C(6), C(t) acceptance 250-1100)?
Answer: 9.8%

Question: What about the “Percent … in range & C(t) in range” value ([1]; C(6), C(t) acceptance 250-1100) of the same compound?
Answer: 73.2%

Question: What about the “Percent … in range & C(t) too high” value ([1]; C(6), C(t) acceptance 250-1100) of the same compound?
Answer: 7.3%

Question: And the “Percent … in range & C(t) too low” value ([1]; C(6), C(t) acceptance 250-1100)?
Answer: 0.0%

Question: And the “Percent of Subjects: Cavg too high & C(t) in range” value ([1]; C(6), C(t) acceptance 250-1100)?
Answer: 0.0%

Question: And the “Percent of Subjects: Cavg too high & C(t) too high” value ([1]; C(6), C(t) acceptance 250-1100)?
Answer: 7.3%

Question: And the “Percent of Subjects: Cavg too low & C(t) in range” value ([1]; C(6), C(t) acceptance 250-1100)?
Answer: 2.4%

Question: What about the “Percent of Subjects: Cavg too low & C(t) too low” value ([1]; C(6), C(t) acceptance 250-1100) of the same compound?
Answer: 9.8%

Question: And the “Percent … (total of too high and too low)” value ([1]; C(6), C(t) acceptance 250-1100)?
Answer: 17.1%

Question: And the “Percent of Subjects: C(t) in range” value ([1]; C(8), C(t) acceptance 200-1300)?
Answer: 95.1%

Question: What about the “Percent of Subjects: C(t) too high” value ([1]; C(8), C(t) acceptance 200-1300) of the same compound?
Answer: 4.9%

Question: And the “Percent of Subjects: C(t) too low” value ([1]; C(8), C(t) acceptance 200-1300)?
Answer: 0.0%

Question: What about the “Percent … in range & C(t) in range” value ([1]; C(8), C(t) acceptance 200-1300) of the same compound?
Answer: 80.5%

Question: What about the “Percent … in range & C(t) too high” value ([1]; C(8), C(t) acceptance 200-1300) of the same compound?
Answer: 0.0%

Question: What about the “Percent … in range & C(t) too low” value ([1]; C(8), C(t) acceptance 200-1300) of the same compound?
Answer: 0.0%

Question: What about the “Percent of Subjects: Cavg too high & C(t) in range” value ([1]; C(8), C(t) acceptance 200-1300) of the same compound?
Answer: 2.4%

Question: And the “Percent of Subjects: Cavg too high & C(t) too high” value ([1]; C(8), C(t) acceptance 200-1300)?
Answer: 4.9%

Question: What about the “Percent of Subjects: Cavg too low & C(t) in range” value ([1]; C(8), C(t) acceptance 200-1300) of the same compound?
Answer: 12.2%

Question: And the “Percent of Subjects: Cavg too low & C(t) too low” value ([1]; C(8), C(t) acceptance 200-1300)?
Answer: 0.0%

Question: And the “Percent … (total of too high and too low)” value ([1]; C(8), C(t) acceptance 200-1300)?
Answer: 4.9%

Question: And the “Percent of Subjects: C(t) in range” value ([1]; C(12), C(t) acceptance 100-680)?
Answer: 92.7%

Question: What about the “Percent of Subjects: C(t) too high” value ([1]; C(12), C(t) acceptance 100-680) of the same compound?
Answer: 4.9%

Question: And the “Percent of Subjects: C(t) too low” value ([1]; C(12), C(t) acceptance 100-680)?
Answer: 2.4%

Question: What about the “Percent … in range & C(t) in range” value ([1]; C(12), C(t) acceptance 100-680) of the same compound?
Answer: 80.5%

Question: What about the “Percent … in range & C(t) too high” value ([1]; C(12), C(t) acceptance 100-680) of the same compound?
Answer: 0.0%

Question: And the “Percent … in range & C(t) too low” value ([1]; C(12), C(t) acceptance 100-680)?
Answer: 0.0%

Question: What about the “Percent of Subjects: Cavg too high & C(t) in range” value ([1]; C(12), C(t) acceptance 100-680) of the same compound?
Answer: 2.4%

Question: What about the “Percent of Subjects: Cavg too high & C(t) too high” value ([1]; C(12), C(t) acceptance 100-680) of the same compound?
Answer: 4.9%

Question: And the “Percent of Subjects: Cavg too low & C(t) in range” value ([1]; C(12), C(t) acceptance 100-680)?
Answer: 9.8%

Question: And the “Percent of Subjects: Cavg too low & C(t) too low” value ([1]; C(12), C(t) acceptance 100-680)?
Answer: 2.4%

Question: What about the “Percent … (total of too high and too low)” value ([1]; C(12), C(t) acceptance 100-680) of the same compound?
Answer: 7.3%

Question: What about the “Percent of Subjects: Cavg in range” value [1, 4] of the same compound?
Answer: 80.5%

Question: And the “Percent of Subjects: Cavg to low” value [1, 4]?
Answer: 12.2%

Question: What about the “Percent of Subjects: Cavg too high” value [1, 4] of the same compound?
Answer: 7.3%

Question: And the “Difference in serum T response” value ([2]; high-fat vs normal-fat meal)?
Answer: < 30%

Question: And the “90% confidence interval, serum T PK parameters” value ([2]; low-fat vs normal fat diet, single 300 mg T dose)?
Answer: 85-125%
